The results in this text go back to patent US8785488B2 (Exelixis Patent Company LLC, priority 2009, dated 2014).

In assay [1] the target is T1, h-TGR5 (Homo sapiens, UniProt Q8TDU6).
T1 construct: expressed in transfected cells
T1 sequence (Q8TDU6 1-330): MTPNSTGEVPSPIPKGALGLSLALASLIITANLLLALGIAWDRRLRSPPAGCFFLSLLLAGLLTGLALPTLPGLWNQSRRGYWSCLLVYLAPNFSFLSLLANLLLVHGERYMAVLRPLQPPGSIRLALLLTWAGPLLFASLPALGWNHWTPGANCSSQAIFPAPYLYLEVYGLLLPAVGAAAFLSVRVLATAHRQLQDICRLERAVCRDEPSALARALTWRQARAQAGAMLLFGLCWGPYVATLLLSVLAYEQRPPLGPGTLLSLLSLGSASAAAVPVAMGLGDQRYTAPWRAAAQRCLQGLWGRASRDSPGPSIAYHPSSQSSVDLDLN
Briefly: TGR5 cAMP Assay using Cisbio cAMP Dynamic2 htrf kit (hTGR5CRE-luc HEK 293 cells). Format: cell-based. The following applies: h-TGR5 cAMP EC50, Table 1; read-out: cAMP (EC50). In outline: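 […], 4000 hTGR5CRE-luc HEK 293 cells per well, with 0.5 mM IBMX and d2-cAMP, were incubated 30 min at room temperature with compounds in 8-point half-log series, in quadruplicate.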

Assay [2] has as its target T2, human TGR5 (h-TGR5) (Homo sapiens, UniProt Q8TDU6).
T2 construct: expressed in transfected cells
T2 sequence (Q8TDU6 1-330): T1 sequence (Q8TDU6 1-330)
Briefly: TGR5/CRE-Luciferiase Assay (HEK 293 hTGR5/CRE-Luc cells). The conditions noted are these: h-TGR5 CRE-Luc EC50, Table 1; read-out: CRE-Luc (EC50). Format: cell-based. Put shortly: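 HEK293 cells stably carrying hTGR5 and a CRE-luciferase reporter were exposed to serially diluted compounds (diluted in DMEM with 5% DMSO) for 6 h. Cells were then lysed in luciferase buffer, luminescence was read, and EC50 values were derived from dose-response curves.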

Consider `CC(C)(c1ccc(Cl)c(Cl)c1)c1cnc(SCc2ccc(Cl)c(-c3nnn[nH]3)c2)n1-c1cccc(Cl)c1` [5-{2-chloro-5-[({1-(3-chlorophenyl)-5-[1-(3,4-dichlorophenyl)-1-methylethyl]-1H-imidazol-2-yl}thio)methyl]phenyl}-1H-tetrazole], for which the concentration giving a half-maximal response (EC50) in assay [1] and in assay [2] was 100 to 1000 nM each time.

Take `COc1cc(C(C)(C)c2cnc(SCc3c(F)cc(S(=O)(=O)NCCS(=O)(=O)O)cc3Cl)n2-c2ccc(F)cc2)ccc1Cl` [2-({[3-chloro-4-({[5-{1-[4-chloro-3-(methyloxy)phenyl]-1-methylethyl}-1-(4-fluorophenyl)-1H-imidazol-2-yl]thio}methyl)-5-fluorophenyl]sulfonyl}amino)ethanesulfonic acid]: the EC50 in assay [1] and in assay [2] was under 100 nM in each case.

On to `CC(C)(c1ccc(Cl)c(Cl)c1)c1cnc(COc2c(F)cc(C(=O)O)cc2Cl)n1-c1ccc(F)cc1`, for which the EC50 in assay [1] and in assay [2] was 100 to 1000 nM in each case.

In general, EC50 refers to the midpoint of the concentration-response curve.
